Results as given in ChEMBL document CHEMBL4342467, “Discovery of a Novel Dual-Target Inhibitor of ERK1 and ERK5 That Induces Regulated Cell Death to Overcome Compensatory Mechanism in Specific Tumor Types” (J Med Chem, 2020).

What was measured:
[1] = target: Mitogen-activated protein kinase 3 (Homo sapiens) (UniProt P27361); assay: Inhibition of ERK1 (unknown origin) at 1 uM by Z'-Lyte assay relative to control
[2] = target: Mitogen-activated protein kinase 1 (Homo sapiens) (UniProt P28482); assay: Inhibition of ERK2 (unknown origin) at 1 uM by Z'-Lyte assay relative to control
[3] = target: Mitogen-activated protein kinase 7 (Homo sapiens) (UniProt Q13164); assay: Inhibition of ERK5 (unknown origin) at 1 uM by Z'-Lyte assay relative to control
HL-60 = assay: Antiproliferative activity against human HL60 cells assessed as reduction in cell viability measured after 24 hrs; format: functional, cell-based; conditions: HL-60, 24 h
MKN-74 = assay: Antiproliferative activity against human MKN74 cells assessed as reduction in cell viability measured after 24 hrs; format: functional, cell-based; conditions: MKN-74, 24 h
HeLa = assay: Antiproliferative activity against human HeLa cells assessed as reduction in cell viability measured after 24 hrs; format: functional, cell-based

Mitogen-activated protein kinase 3 (Homo sapiens), sequence (P27361 whole entry): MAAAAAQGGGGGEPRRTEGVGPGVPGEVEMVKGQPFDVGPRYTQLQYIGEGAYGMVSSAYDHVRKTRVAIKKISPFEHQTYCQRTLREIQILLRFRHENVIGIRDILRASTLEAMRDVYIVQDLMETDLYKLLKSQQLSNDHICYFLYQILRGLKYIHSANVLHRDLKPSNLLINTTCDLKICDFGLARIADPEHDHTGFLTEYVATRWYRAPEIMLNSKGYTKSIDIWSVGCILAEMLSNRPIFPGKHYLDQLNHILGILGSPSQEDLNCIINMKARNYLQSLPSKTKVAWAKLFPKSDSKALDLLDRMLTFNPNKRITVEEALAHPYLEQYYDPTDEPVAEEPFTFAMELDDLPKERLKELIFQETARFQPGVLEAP
Mitogen-activated protein kinase 7 (Homo sapiens), sequence (Q13164 2-816 limits assumed): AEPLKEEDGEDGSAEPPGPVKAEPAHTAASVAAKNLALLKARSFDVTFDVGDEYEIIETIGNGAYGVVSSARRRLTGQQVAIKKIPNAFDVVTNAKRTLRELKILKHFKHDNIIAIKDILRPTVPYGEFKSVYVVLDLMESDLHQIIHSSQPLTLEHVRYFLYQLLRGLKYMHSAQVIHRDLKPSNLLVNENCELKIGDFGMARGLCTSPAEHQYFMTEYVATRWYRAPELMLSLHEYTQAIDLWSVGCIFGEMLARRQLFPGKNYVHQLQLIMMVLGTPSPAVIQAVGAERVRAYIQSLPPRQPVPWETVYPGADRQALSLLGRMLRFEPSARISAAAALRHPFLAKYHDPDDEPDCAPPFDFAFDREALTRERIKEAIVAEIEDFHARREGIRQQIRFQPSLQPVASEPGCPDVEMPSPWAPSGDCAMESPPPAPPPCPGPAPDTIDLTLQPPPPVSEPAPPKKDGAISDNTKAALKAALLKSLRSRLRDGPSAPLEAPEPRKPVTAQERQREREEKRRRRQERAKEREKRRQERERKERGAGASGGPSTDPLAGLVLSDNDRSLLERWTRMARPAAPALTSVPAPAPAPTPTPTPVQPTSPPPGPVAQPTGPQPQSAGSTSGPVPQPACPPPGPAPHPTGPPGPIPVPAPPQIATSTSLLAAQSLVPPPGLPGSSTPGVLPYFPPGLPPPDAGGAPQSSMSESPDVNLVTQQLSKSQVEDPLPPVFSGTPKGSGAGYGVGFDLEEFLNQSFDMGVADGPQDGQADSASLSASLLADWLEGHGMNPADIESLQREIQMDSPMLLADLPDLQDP
Mitogen-activated protein kinase 1 (Homo sapiens), sequence (P28482 whole entry): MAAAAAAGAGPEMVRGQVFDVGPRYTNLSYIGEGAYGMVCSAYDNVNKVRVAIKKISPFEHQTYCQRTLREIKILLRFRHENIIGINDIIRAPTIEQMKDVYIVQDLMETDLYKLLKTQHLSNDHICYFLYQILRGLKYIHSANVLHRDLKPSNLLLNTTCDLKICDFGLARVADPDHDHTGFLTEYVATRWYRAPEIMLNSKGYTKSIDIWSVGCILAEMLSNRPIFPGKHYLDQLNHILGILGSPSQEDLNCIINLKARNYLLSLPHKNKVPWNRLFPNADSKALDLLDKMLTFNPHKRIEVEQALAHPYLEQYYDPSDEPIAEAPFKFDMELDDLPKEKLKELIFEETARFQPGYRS

inhibition [1]	inhibition [2]	inhibition [3]	IC50 (HL-60)	IC50 (MKN-74)	IC50 (HeLa)	Compound
88.4%	82.8%	70.7%	4.97 µM	12.6 µM	28.7 µM	NC(=O)c1c(NC(=O)c2ccccc2Cl)sc2c1CCN(C(=S)Nc1ccccc1F)C2
79.4%	66%	54.2%	16.3 µM	13.8 µM	49 µM	NC(=O)c1c(NC(=O)c2ccc(C(F)(F)F)cc2)sc2c1CCN(C(=S)Nc1cc(C(F)(F)F)cc(C(F)(F)F)c1)C2
72%	76.9%	60.1%	23.2 µM	17.4 µM	> 50 µM	Cc1ccccc1C(=O)Nc1sc2c(c1C(N)=O)CCN(C(=S)Nc1ccccc1C(F)(F)F)C2
70.4%	71.9%	53.8%	14.6 µM	27.6 µM	32.9 µM	Cc1ccc(C(=O)Nc2sc3c(c2C(N)=O)CCN(C(=O)Nc2ccccc2Cl)C3)cc1
77.2%	81.6%	86.5%	23.5 µM	19.6 µM	> 50 µM	NC(=O)c1c(NC(=O)c2ccccc2C(F)(F)F)sc2c1CCN(C(=S)Nc1ccccc1F)C2
77.6%	74.9%	61.7%	> 50 µM	34.5 µM	> 50 µM	COc1ccccc1NC(=S)N1CCc2c(sc(NC(=O)c3ccccc3C(F)(F)F)c2C(N)=O)C1
48.5%	45.7%	38.5%	34.6 µM	28.4 µM	> 50 µM	NC(=O)c1c(NC(=O)c2ccncn2)sc2c1CCN(C(=S)Nc1ccccc1Cl)C2
77.4%	80.1%	70.8%	11.8 µM	14.9 µM	17.1 µM	Cc1ccc(C(=O)Nc2sc3c(c2C(N)=O)CCN(C(=S)Nc2cc(C(F)(F)F)cc(C(F)(F)F)c2)C3)cc1
85.4%	76.5%	59.5%	5.94 µM	15.6 µM	46.7 µM	NC(=O)c1c(NC(=O)c2ccccc2Cl)sc2c1CCN(C(=S)Nc1ccccc1)C2
64.2%	58.5%	70.7%	7.04 µM	8.85 µM	40.3 µM	NC(=O)c1c(NC(=O)c2cccc([N+](=O)[O-])c2)sc2c1CCN(C(=S)Nc1ccccc1Cl)C2
77.5%	80.7%	64.8%	19.7 µM	14.2 µM	49.2 µM	NC(=O)c1c(NC(=O)c2ccccc2I)sc2c1CCN(C(=S)Nc1ccccc1C(F)(F)F)C2
82.5%	79.7%	57.9%	5.52 µM	12.2 µM	> 50 µM	NC(=O)c1c(NC(=O)c2ccc(C(F)(F)F)cc2)sc2c1CCN(C(=S)Nc1ccc(C(F)(F)F)cc1)C2
82.5%	85.5%	73.3%	25.5 µM	23.9 µM	> 50 µM	NC(=O)c1c(NC(=O)c2ccccc2C(F)(F)F)sc2c1CCN(C(=S)Nc1ccccc1Br)C2
82%	80%	85.5%	18.9 µM	22.4 µM	> 50 µM	NC(=O)c1c(NC(=O)c2ccccc2I)sc2c1CCN(C(=S)Nc1ccccc1Br)C2
75.6%	79%	57.5%	36.1 µM	16.4 µM	44 µM	NC(=O)c1c(NC(=O)c2ccc(C(F)(F)F)cc2)sc2c1CCN(C(=S)Nc1ccccc1Cl)C2
83.2%	82.8%	50.4%	8.43 µM	11.3 µM	26.2 µM	Cc1ccc(C(=O)Nc2sc3c(c2C(N)=O)CCN(C(=S)Nc2ccccc2Cl)C3)cc1
73.8%	77.5%	58.9%	13.8 µM	11.8 µM	> 50 µM	NC(=O)c1c(NC(=O)c2ccccc2)sc2c1CCN(C(=S)Nc1ccccc1Cl)C2
80.9%	82.1%	88.4%	17.6 µM	13.7 µM	24.7 µM	NC(=O)c1c(NC(=O)c2ccccc2Br)sc2c1CCN(C(=S)Nc1ccccc1Br)C2
87.7%	89.7%	80.5%	14.6 µM	12.9 µM	46.9 µM	NC(=O)c1c(NC(=O)c2ccccc2Br)sc2c1CCN(C(=S)Nc1ccccc1Cl)C2
89.3%	88.8%	77.4%	6.5 µM	15 µM	48.9 µM	NC(=O)c1c(NC(=O)c2ccccc2Cl)sc2c1CCN(C(=S)Nc1cc(C(F)(F)F)cc(C(F)(F)F)c1)C2
82.8%	81.3%	72.5%	13.4 µM	20.7 µM	30.8 µM	NC(=O)c1c(NC(=O)c2ccccc2Cl)sc2c1CCN(C(=S)Nc1cccc3ccccc13)C2

Second part, the compound before the results:

Compound	inhibition [1]	inhibition [2]	inhibition [3]	IC50 (HL-60)	IC50 (MKN-74)	IC50 (HeLa)
NC(=O)c1c(NC(=O)c2ccccc2Cl)sc2c1CCN(Cc1c(Cl)cccc1Cl)C2	57.8%	78.1%	61.9%	4.85 µM	4.74 µM	28.8 µM
NC(=O)c1c(NC(=O)c2ccccc2Cl)sc2c1CCN(Cc1cc(Cl)cc(Cl)c1)C2	61%	59.9%	22.9%	15.8 µM	23.7 µM	19.6 µM
NC(=O)c1c(NC(=O)c2ccccc2Cl)sc2c1CCN(C(=O)Nc1ccccc1Cl)C2	89.2%	88.4%	89.9%	12.5 µM	16.3 µM	45.4 µM
NC(=O)c1c(NC(=O)c2ccccc2Cl)sc2c1CCN(C(=S)Nc1ccccc1-c1ccccc1)C2	60.9%	64.7%	40.5%	34.4 µM	25.8 µM	24.9 µM
Cc1ccc(C(=O)Nc2sc3c(c2C(N)=O)CCN(Cc2ccc(Cl)cc2Cl)C3)cc1	32.2%	53.7%	52.3%	19.9 µM	25.5 µM	> 50 µM
Cc1ccccc1NC(=S)N1CCc2c(sc(NC(=O)c3ccccc3C)c2C(N)=O)C1	48.3%	43%	37.1%	> 50 µM	> 50 µM	> 50 µM
NC(=O)c1c(NC(=O)c2ccccc2Cl)sc2c1CCN(Cc1ccc([N+](=O)[O-])cc1)C2	66.2%	63.1%	65%	11.4 µM	31.5 µM	46.1 µM
NC(=O)c1c(NC(=O)c2ccccc2F)sc2c1CCN(Cc1cccc(Cl)c1)C2	49.3%	48.8%	42.5%	19.8 µM	23.3 µM	49.5 µM
COc1ccccc1NC(=S)N1CCc2c(sc(NC(=O)c3ccccc3OC)c2C(N)=O)C1	44.7%	48.7%	32%	> 50 µM	> 50 µM	> 50 µM
NC(=O)c1c(NC(=O)c2ccccc2Cl)sc2c1CCN(Cc1ccccc1F)C2	68.3%	71.6%	37.9%	21.8 µM	12.9 µM	> 50 µM
Cc1ccccc1C(=O)Nc1sc2c(c1C(N)=O)CCN(C(=S)Nc1ccccc1Br)C2	64.7%	65.2%	54.9%	45.2 µM	> 50 µM	> 50 µM
NC(=O)c1c(NC(=O)c2cccc([N+](=O)[O-])c2)sc2c1CCN(Cc1c(Cl)cccc1Cl)C2	31.6%	29.3%	45.2%	18.4 µM	13.5 µM	46.1 µM
COc1ccccc1NC(=S)N1CCc2c(sc(NC(=O)c3ccccc3I)c2C(N)=O)C1	56.1%	59.6%	42.8%	> 50 µM	41.8 µM	> 50 µM
NC(=O)c1c(NC(=O)c2ccccc2Cl)sc2c1CCN(C(=S)Nc1cccnc1)C2	41.9%	45.4%	34.9%	33.9 µM	38.6 µM	> 50 µM
NC(=O)c1c(NC(=O)c2ccccc2F)sc2c1CCN(C(=S)Nc1cc(C(F)(F)F)cc(C(F)(F)F)c1)C2	76.6%	68.6%	77.3%	17.9 µM	13.3 µM	28 µM
Cc1ccc(C(=O)Nc2sc3c(c2C(N)=O)CCN(Cc2c(Cl)cccc2Cl)C3)cc1	42.8%	45.4%	46%	10 µM	12.3 µM	47.4 µM
NC(=O)c1c(NC(=O)c2ccccc2F)sc2c1CCN(Cc1c(Cl)cccc1Cl)C2	48.4%	36.9%	21.1%	10.3 µM	7.43 µM	33 µM
NC(=O)c1c(NC(=O)c2ccccc2F)sc2c1CCN(Cc1ccc(Cl)cc1Cl)C2	55.7%	32.4%	38%	13.1 µM	9.61 µM	27.5 µM
NC(=O)c1c(NC(=O)c2cccc([N+](=O)[O-])c2)sc2c1CCN(Cc1ccc(Cl)cc1Cl)C2	67.2%	65.3%	77.9%	19.8 µM	16.5 µM	33 µM
